Test results from patent US7754718B2 (priority 2004, dated 2010).

Experiments:
HCV = experiment: Anti-HCV activity in Huh-Luc/neo cell line, luciferase activity after 3-day treatment; type: cell-based, Hepatitis C virus; conditions: Hepatitis C virus, 72 h; at 3 μM, Huh-Luc/neo cells, 3 days; read-out: HCV percent of inhibition
HSV-2 = experiment: In vitro antiviral assay for HSV-2; type: cell-based, Herpes Simplex Virus 2; conditions: Human alphaherpesvirus 2, read-out: Antiviral Activities (EC50, μM) HSV-2
Summary of the method: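 Performed according to previously reported procedures for each virus; no further conditions are given for the HSV-2, CMV, HIV or EBV assays.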

CMV = experiment: In vitro antiviral assay for CMV; type: cell-based, cytomegalovirus; conditions: Human betaherpesvirus 5, read-out: Antiviral Activities (EC50, μM) CMV
Protocol: The antiviral assays for HBV, (Doong et al., 1991, Proc. Natl. Acad. Sci. U.S.A. 88:8495-8499) HSV-1, (Bastow et al., 1983, Antimicrob. Agents Chemother. 23: 914-917) HSV-2, (Bastow et al., 1983, Antimicrob. Agents Chemother. 23:914-917) EBV, (Yao et al., 1993, Antimicrob. Agents Chemother. 37:1420-1425), CMV (Andreoni et al., 2002, J. Med. Virol. 67:33-40) and HIV (Mellors et al., 1992, Mol. Pharmacol. 41: 446-451) were performed according to the previously reported procedures. Anti-HCV activities were tested in Huh-Luc/neo cell line. Cells were seeded into 48-well plates and grown until confluent. Different concentrations of drugs were added into media (DMEM, 10% dFBS) and incubated for 3 days. At the end of 3-day treatment, medium were removed and 50 μl of Passive lysis buffer (Promega) were added. Cell lysate was shaken at room temperature for 15 min. 30 μl/well of cell lysate was transferred to another 96-well plate, 100 μl/well of luciferase activity assay substrate was added into plate and read by a luminometer (Amersham) immediately.

[1] = Cell cytotoxicity assay on MT-2 cells; type: cell-based; conditions: human, read-out: Cytotoxity (ID50, μM) MT-2
Summary of the method: (§1)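 MT-2 and CEM cytotoxicity determined per previously reported procedures. HepG2 cells seeded at 10^4 cells/ml in MEME + 10% FBS, compound added on day 2 for 3 further days at 37° C. Viable layer stained with methylene blue, solubilized in 1% sarcosyl, A595 read.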

[2] = Cell cytotoxicity assay on CEM cells; type: cell-based; conditions: human, read-out: Cytotoxity (ID50, μM) CEM
Summary of the method: as §1

Row | Structure (SMILES) | inhibition at 3 µM (HCV) [%] | EC50 (HSV-2) [µM] | EC50 (CMV) [µM] | IC50 [1] [µM] | IC50 [2] [µM] | melting point
1 | O=C1OCc2c1cc1ccc3c(c1c2-c1ccc2c(c1)OCO2)OCO3 [Compound 2, 10-Benzo[1,3]dioxol-5-yl-9H-furo[3′,4′:6,7]naphtho[1,2-d][1,3]dioxol-7-one, reference compound] | 64 | 35 | 7.3 | 2.5 | 31 | 
2 | COc1ccc(-c2c3c(cc4ccc5c(c24)OCO5)C(=O)NC3)cc1OC [Compound 22, 10-(3,4-Dimethoxy-phenyl)-8,9-dihydro-1,3-dioxa-8-aza-dicyclopenta[a,g]naphthalen-7-one] | 80 | 0.5 |  | 16 | 5 | 258 °C (dec.)
